This is an account of results in US20170088609A1, “ANTICANCER COMBINATION THERAPY” (priority 2015, published 2017).

For data set [1], the system named is T790M-containing cell lines. The conditions noted are these: several preclinical models; cited from earlier work.
Another data set concerns mutant forms of EGFR. As to the kind of experiment: Enzymatic inhibitory activity towards EGFR. Type of data set: biochemical. From the text:
(§1) Compound 1 is a small molecule epidermal growth factor receptor (EGFR) mutant-specific inhibitor. […] Anti-tumor efficacy was independent of schedule (once daily versus twice daily administration) and was tolerated by the mice at clinically relevant exposure. Compound 1 is a novel, 3rd generation EGFR mutant-specific TKI, which is currently being investigated in first and second line setting for treatment of patients with EGFR-mutated NSCLC.

The test system of data set [2] is HCC827 (EGFRDelE746-A750).
Source text: as §1

The subject of a further data set is H1975 (EGFRL858R/T790M). Description: In vivo xenograft study, NSCLC model H1975. The conditions noted are these: H1975 xenograft in mice; once daily or twice daily.
Source text: as §1

A further data set concerns EGFR mutant cell lines. Description: Cellular assays comparing EGFR mutant with EGFR wild type cell lines (proliferation). It is filed as cell-based. The conditions noted are these: EGFR mutant vs EGFR wild type cell lines.
Source text: as §1

Data set [3] concerns PC-9/GR/WR tumor xenografts. As to the kind of experiment: PC-9/GR/WR xenograft studies (tumor volume). Type of data set: in vivo. As to conditions: SCID mice; HM61713 200 and 400 mg/kg oral gavage 5 days a week. The procedure:
To establish the PC-9/GR/WR xenograft model, female severe combined immunodeficiency (SCID) mice (18-20 g, 6 weeks of age) were purchased from Charles River Laboratories. All experimental procedures were conducted following a protocol approved by the Institutional Animal Care and Use committee of Asan Institute for Life Sciences (2015-02-062). […] Combination with WZ4002: […] Combination with HM61713: […] Body weights were measured every 3-4 days. At the end of the combination experiment with WZ4002, tumors from each group were homogenized for lysate preparation and analyzed by Western Blotting.

Structures are written as SMILES.

Regarding `COc1cc2ncnc(Nc3ccc(F)c(Cl)c3)c2cc1NC(=O)/C=C/CN1CCCCC1` [dacomitinib], in data set [1], the “inhibition of T790M-containing cell lines” value is “effectively inhibit”.
In the case of `C=CC(=O)Nc1cccc(Oc2nc(Nc3ccc(N4CCN(C)CC4)cc3)nc3ccsc23)c1` [compound 1, N-(3-{2-[4-(4-methyl-piperazin-1-yl)-phenylamino]-thieno[3,2-d]pyrimidin-4-yloxy}-phenyl)-acrylamide], the “blocking of the catalytic activity of EGFR mutants” value in the data set with mutant forms of EGFR (common EGFR mutants (L858R and exon 19 deletions) and certain uncommon EGFR mutants including T790M, covalent binding) was “irreversibly blocks”. Moreover, the “enzymatic inhibitory activity towards mutant forms of EGFR compared to wild type EGFR” value with mutant forms of EGFR (in vitro) is recorded as “more potent”. The “anti-tumor activity as a single agent” value in data set [2] (HCC827 xenograft in mice, once daily or twice daily) is given as “Tumor regressions”; with H1975 (EGFRL858R/T790M) it was “Tumor regressions”. In data set [2] (mouse, in vivo), the tolerability in mice entry is “tolerated”. In the data set on EGFR mutant cell lines, the “inhibition of proliferation of mutated cell lines at lower concentration than for cells expressing wild type EGFR receptor” value is “approximately 35 fold”. The “response of PC-9/GR/WR tumor xenografts to monotherapy” value in data set [3] is given as “Cross-resistance”.
